Values of other authors as cited in patent US9119775B2, “Use of pilocarpine for hypoptyalism treatment” (priority 2004, dated 2015).

How the values were obtained:
[1] = test system: salivary glands
[2] = test system: salivary glands; settings: according to the known pharmacokinetic studies

Question: Which results are given for CC[C@@H]1C(=O)OC[C@@H]1Cc1cncn1C [pilocarpine]?
Answer: delay of first action of the pilocarpine after intake ([1]; oral method, after intake): 0.45 to 1 h; undesirable secondary effects ([1]; oral tablets, 15 mg per day up to 30 mg per day, conducted over several weeks): nausea, excessive sweating, sensations of dizziness, hot flashes or asthenias; duration of the effects of stimulation [2]: 4 to 8 h
